Data as given in ChEMBL document CHEMBL5236629, “Antioxidant and Neuroprotective Effects of the First Tryptophyllin Found in Snake Venom (Bothrops moojeni)” (J Nat Prod, 2022).
Activity calls are given as the source filed them. No cut-off for these calls is given here. Where a SMILES comes first, the peptide text is derived from it.

Legend:
[1] = Antioxidant activity assessed as trolox equivalent of ABTS radical scavenging activity measured for 6 mins; type: functional
[2] = Antioxidant activity assessed as trolox equivalent of AAPH radical scavenging activity preincubated for 15 mins followed by 10 sec incubation under shaking condition and measured every minute for 2 hrs by ORAC fluorescence based microplate reader analysis; type: functional; conditions: time 8110.0 sec
[3] = Hemolytic activity in human red blood cell assessed as cell membrane disruption at 12.5 to 400 ug/ml incubated for 1 hrs by microplate reader analysis; type: toxicity, cell-based; conditions: erythrocyte, dose 12.5-400 µg/ml
[4] = test system: Erythrocyte; assay: Protection against AAPH-induced hemolysis in human RBC at 25 to 400 ug/ml preincubated with compound for 20 mins followed bu AAPH addition and measured after 3 hrs by spectrophotometric analysis; type: functional, cell-based; conditions: dose 25-400 µg/ml, time 200.0 min
[5] = Protection against AAPH-induced hemolysis in human RBC at 50 to 100 ug/ml preincubated with compound for 20 mins followed bu AAPH addition and measured after 3 hrs by spectrophotometric analysis relative to control; type: functional, Erythrocyte; conditions: dose 50-100 µg/ml; time 200 min; 3.333 h; at 50 to 100 µg/mL
[6] = Cytotoxicity against human SK-N-BE(2) cells assessed as reduction in cell viability incubated for 24 hrs by MTT assay; type: toxicity, cell-based
[7] = Antioxidant activity assessed as protection against AAPH-induced DNA degradation in to linear form incubated for 1 hrs by SYBR dye based electrophoresis; type: functional
[8] = test system: N2a; assay: Antioxidant activity in arsenite-induced mouse Neuro2a cells assessed as reduction in Nrf2 protein level at 100 uM incubated for 3 hrs by Western blot analysis; type: functional, cell-based
[9] = test system: N2a; assay: Antioxidant activity in arsenite-induced mouse Neuro2a cells assessed as increase in SOD level at 100 uM incubated for 3 hrs by Western blot analysis; type: functional, cell-based
[10] = test system: SK-N-BE(2); assay: Antioxidant acitivity against PMA-stimulated human SK-N-BE(2) cells assessed as reduction in PMA-stimulated ROS level at 50 to 100 uM incubated for 60 mins by DCFH-DA staining based flow cytometric analysis; type: functional, cell-based; conditions: dose 50-100 µM
[11] = test system: SK-N-BE(2); assay: Antioxidant acitivity against PMA-stimulated human SK-N-BE(2) cells assessed as reduction in PMA-stimulated RNS level at 50 uM incubated for 60 mins by DCFH-DA staining based flow cytometric analysis; type: functional, cell-based

In the case of `CC[C@H](C)[C@H](NC(=O)[C@H](Cc1c[nH]c2ccccc12)NC(=O)[C@@H]1CCCN1C(=O)[C@@H](N)Cc1ccccc1)C(=O)N[C@H](C(=O)N[C@@H](CO)C(N)=O)[C@@H](C)CC` (H-FPWIIS-NH2), the Activity [1] is reported as 796 µM/g, the Activity [2] is reported as 674 µM/g and the Activity [3] is reported as “Non-Toxic”. The Activity [4] was “Active”, the Activity [5] was greater than 75% and the CC50 at 24 h [6] was 1730 µM. The Activity [7] was “Active”, the Activity [8] was “Active” and the Activity [9] was “inactive”. For the same compound, the Activity [10] was “Active” and the Activity [11] was “Active”.
